# Laboratory results from patent publication US4221794A, “Method of imparting immunomodulating and antiviral activity” (Newport Pharmaceuticals International, Inc., priority 1979, dated 1980).
# Read-outs that look alike come from different tables or passages of the source.
# Assays:
# Toxicity in mice = conditions: for LD50: mouse, in vivo
# L-1210 leukemic cells = experiment: Anti-leukemic activity, inhibition of L-1210 growth; type: cell-based, mouse
# Protocol: Anti-Leukemic Activity (Inhibition of L-1210 Growth)
# Leukemic cells isolated from mice bearing the L-1210 tumor are cultured in vitro and their growth can be measured by counting the number of cells in the culture over a period of time. The incorporation of a test substance into the media will prevent the growth of the leukemic cells, an indication of an effective anti-leukemic agent.
# I50 (concentration of drug inhibiting growth of L-1210) by % for the tested compounds was as follows:
# To Measure Inhibition of Leukemic Cell (L-1210) Growth
# Check to see that there is adequate cell growth in the stock cultures. Use cells 48-72 hours after transfers are done.
# Weigh out the drugs at 50 times the desired final concentration and made serial dilutions.
# Make up the final medium using 500 mls McCoy's 5A medium, 15% fetal calf serum, 5 mls penicillin-streptomycin solution, and 5 mls antibiotic-antimycotic solution and let it stand at room temperature.
# Using sterile technique, add 0.1 ml of the drug dilutions to each tube.
# Add an appropriate quantity of cells to the prepared medium. After mixing, remove a 0.5 ml sample, place it in a vial containing […] of saline, and count it on the Coulter Counter. Multiply the count by 40 to compensate for the 40 fold dilution (0.5 ml into […] and record the inoculum.
# Add 5 mls of cell suspension to each tube. Swirl the bottle every 4 tubes to insure a more uniform distribution of cells.
# Tighten the caps and place in the CO2 incubator at 36°-38° for 96 hours.
# After 96 hours remove the tubes from the incubator and count the contents of each on the Coulter Counter. Multiply all counts by 40 and average the four counts for each drug dilution. If the count is less than the inoculum, record 100% inhibition. If the count is greater than the average of the eight control counts, record 0% inhibition. For all other counts use the following formula: [formula] 100%-% servival=inhibition of growth due to treatment.
# [1] = system: human peripheral blood lymphocytes; experiment: Mitogen (PHA) induced human lymphocyte proliferation; type: cell-based; conditions: plus = immunostimulating, minus = immunoinhibiting, 0 = neither
# [2] = Phase solubility study with DIP.PAcBA; type: physicochemical; conditions: constant pH
# Excerpt: This is indicative of an interaction occuring in solution to yield a complex.
# [3] = system: Influenza A Swine 1976 (Hlsw -N1); type: cell-based; conditions: A/Swine/76 (Hlsw N1)
# A/Texas/77 (H3 N2) = experiment: Inhibition of influenza virus replication, A/Texas/77; type: cell-based, influenza virus A/Texas/77
# A2 Hong Kong (H2 N2) = experiment: Inhibition of influenza virus replication, A2 Hong Kong; type: cell-based
# A/PR8 (H0 N1) = experiment: Inhibition of influenza virus replication, A/PR8; type: cell-based
# A/Dunedin/73 (H3 N2) = experiment: Inhibition of influenza virus replication, A/Dunedin/73; type: cell-based, influenza virus A/Dunedin/73
# A/Jap/305 (H2 N2) = experiment: Inhibition of influenza virus replication, A/Jap/305; type: cell-based, influenza virus A/Jap/305
smiles,measurement,setting,value
"CCCCCC[C@H]([C@H](C)O)n1cnc2c(=O)[nH]cnc21 (relative stereo) [NPT 15392, ERYTHRO-9-(2-HYDROXY-3-NONYL)HYPOXANTHINE]",drug related mortality,"Toxicity in mice; mice, doses of 1000 mg/kg",no drug related mortality was noted
same,IC50,"L-1210 leukemic cells; Mus musculus, L1210, tissue culture, read-out: 50% inhibition of L-1210 cells",28 µg/mL
same,"Maximum Percent Change, Mitogen Induced (PHA) Human Lymph. Prolif.",[1]; 1.0-10 (unit not given),20%
same,"Maximum Percent Change, Mitogen Induced (PHA) Human Lymph. Prolif.",[1]; 10-100 (unit not given),-50%
same,"Maximum Percent Change, Mitogen Induced (PHA) Human Lymph. Prolif.",[1]; .01-1.0 (unit not given),11-15%
same,solubility with DIP.PAcBA (phase solubility),[2],increased solubility at increasing concentrations of DIP.PAcBA
CCCCCC[C@H]([C@H](C)O)n1cnc2c(=O)[nH]cnc21 (relative stereo) [NPT 15410],Inhibition of influenza virus replication,[3]; 1.0-10.0 μg/ml,++ (30-50% Inhibition)
same,Inhibition of influenza virus replication,[3]; 10.0-100 μg/ml,++++ (>70% Inhibition)
same,Inhibition of influenza virus replication,[3]; .01-1.0 μg/ml,+++ (50-70% Inhibition)
same,Inhibition of influenza virus replication,[3]; >100 μg/ml,++++ (>70% Inhibition)
same,Inhibition of influenza virus replication,"A/Texas/77 (H3 N2); A/Texas/77, 1.0-10.0 μg/ml",+ (20-30% Inhibition)
same,Inhibition of influenza virus replication,"A/Texas/77 (H3 N2); A/Texas/77, 10.0-100 μg/ml",++++ (>70% Inhibition)
same,Inhibition of influenza virus replication,"A/Texas/77 (H3 N2); A/Texas/77, .01-1.0 μg/ml",++ (30-50% Inhibition)
same,Inhibition of influenza virus replication,"A/Texas/77 (H3 N2); A/Texas/77, >100 μg/ml",++++ (>70% Inhibition)
same,Inhibition of influenza virus replication,A2 Hong Kong (H2 N2); 10.0-100 μg/ml,++ (30-50% Inhibition)
same,Inhibition of influenza virus replication,A2 Hong Kong (H2 N2); >100 μg/ml,+++ (50-70% Inhibition)
same,LD50,Toxicity in mice,4300 mg/kg
same,LD50,Toxicity in mice; sc,4900 mg/kg
same,Inhibition of influenza virus replication,"A/PR8 (H0 N1); A/PR8, 1.0-10.0 μg/ml",++ (30-50% Inhibition)
same,Inhibition of influenza virus replication,"A/PR8 (H0 N1); A/PR8, 10.0-100 μg/ml",++++ (>70% Inhibition)
same,Inhibition of influenza virus replication,"A/PR8 (H0 N1); A/PR8, .01-1.0 μg/ml",++ (30-50% Inhibition)
same,Inhibition of influenza virus replication,"A/PR8 (H0 N1); A/PR8, >100 μg/ml",+++ (50-70% Inhibition)
same,Inhibition of influenza virus replication,"A/Dunedin/73 (H3 N2); A/Dunedin/73, 10.0-100 μg/ml",± (10-20% Inhibition)
same,Inhibition of influenza virus replication,"A/Dunedin/73 (H3 N2); A/Dunedin/73, >100 μg/ml",++ (30-50% Inhibition)
same,I50 (concentration of drug inhibiting growth of L-1210),L-1210 leukemic cells; 96 hours,54 micrograms/ml
same,Potentiation Anti-Leukemia by DIP.PAcBA salt,L-1210 leukemic cells; salt compared with parent compound,Yes
same,50% inhibition of L-1210 cells,L-1210 leukemic cells; tissue culture,54 µg/mL
same,"Maximum Percent Change, Mitogen Induced (PHA) Human Lymph. Prolif.",[1]; 1.0-10 (unit not given),60%
same,Inhibition of influenza virus replication,"A/Jap/305 (H2 N2); A/Jap/305, 10.0-100 μg/ml",++++ (>70% Inhibition)
same,Inhibition of influenza virus replication,"A/Jap/305 (H2 N2); A/Jap/305, >100 μg/ml",++++ (>70% Inhibition)
